In ChEMBL document CHEMBL1201862, “PubChem BioAssay data set” (2004):
Calls of active or inactive are those of the source.

Tests used:
[1] = biological target: 5-hydroxytryptamine receptor 2A (Mus musculus, UniProt P35363); assay type: functional, cell-based;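 further: CHO-K1 cells with tagged receptor and beta-arrestin; agonist potency measured as compound-induced activation of the receptor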
Mu-type opioid receptor = Mu-type opioid receptor (Homo sapiens, UniProt P35372); assay type: functional, cell-based;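 further: U2OS cells with beta-arrestin recruitment to OPRM1 by beta-gal complementation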
[2] = biological target: Tyrosyl-DNA phosphodiesterase 2 (Homo sapiens, UniProt O95551); experiment: potency against TDP2 phosphodiesterase activity – biochemical, epi absorbance, IC50, dose response (AID 743297)
[3] = NIH3T3 cell viability loss – ATP luminescence, mouse fibroblasts, counter-screen, dose response (AID 2010); assay type: functional, cell-based;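 further: cells exposed to compound for about 90 hours before reading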
[4] = biological target: T1, Trace amine-associated receptor 1 (Homo sapiens, UniProt Q96RJ0); experiment: Fluorescence-based cell-based high throughput dose response assay to identify agonists of the human trace amine associated receptor 1 (TAAR1).; assay type: functional
T1 sequence (Q96RJ0 whole entry): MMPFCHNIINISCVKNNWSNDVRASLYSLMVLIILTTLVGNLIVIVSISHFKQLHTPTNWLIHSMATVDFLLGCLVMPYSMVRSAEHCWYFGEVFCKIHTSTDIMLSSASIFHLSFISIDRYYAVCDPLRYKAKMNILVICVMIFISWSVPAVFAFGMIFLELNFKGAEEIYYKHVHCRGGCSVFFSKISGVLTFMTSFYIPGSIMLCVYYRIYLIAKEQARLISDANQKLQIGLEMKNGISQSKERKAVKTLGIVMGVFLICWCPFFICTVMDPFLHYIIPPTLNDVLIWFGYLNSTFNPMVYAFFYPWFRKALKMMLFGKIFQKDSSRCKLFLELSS

cells [5] = assay type: functional, cell-based
[6] = Trypanosoma cruzi growth suppression in host cells – NIH3T3 host cells, beta-gal luminescence, confirmation (AID 2044); assay type: functional, cell-based;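 further: intracellular parasites grown in NIH/3T3 mouse fibroblasts as host cells; luminescent beta-galactosidase reporter signal from transgenic T. cruzi replicating inside host cells; inhibitors lower the luminescence signal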
[7] = biological target: T1, Trace amine-associated receptor 1; experiment: Counterscreen for agonists of the human trace amine associated receptor 1 (hTAAR1): Fluorescence-based cell-based high throughput dose response assay to identify hTAAR1 agonist that also desensitize TAAR1 receptor response.; assay type: functional
cells [8] = assay type: functional, cell-based; remark: listed apart in the source
[9] = Fluorescence-based cell-based high throughput dose response assay for inhibitors of the interaction of nucleotide-binding oligomerization domain containing 2 (NOD2) and the receptor-interacting serine-threonine kinase 2 (RIPK2).; assay type: functional; details: Homo sapiens
Beta Lactamase = Beta Lactamase (Pseudomonas aeruginosa, UniProt Q932Y6); experiment: BLA reporter interference, concentration series – BLA reporter cells, FRET fluorescence, artefact control for NOD2-RIPK2 interaction inhibitor project, dose response (AID 651552); assay type: functional, cell-based
[10] = biological target: T2, Rac GTPase-activating protein 1 (Homo sapiens, UniProt Q9H0H5); experiment: blockers of MgcRacGAP-driven Rac1 GTP hydrolysis – biochemical, ADP Hunter fluorescence, primary and confirmatory, confirmation (AID 624330); assay type: functional
T2 sequence (Q9H0H5 whole entry): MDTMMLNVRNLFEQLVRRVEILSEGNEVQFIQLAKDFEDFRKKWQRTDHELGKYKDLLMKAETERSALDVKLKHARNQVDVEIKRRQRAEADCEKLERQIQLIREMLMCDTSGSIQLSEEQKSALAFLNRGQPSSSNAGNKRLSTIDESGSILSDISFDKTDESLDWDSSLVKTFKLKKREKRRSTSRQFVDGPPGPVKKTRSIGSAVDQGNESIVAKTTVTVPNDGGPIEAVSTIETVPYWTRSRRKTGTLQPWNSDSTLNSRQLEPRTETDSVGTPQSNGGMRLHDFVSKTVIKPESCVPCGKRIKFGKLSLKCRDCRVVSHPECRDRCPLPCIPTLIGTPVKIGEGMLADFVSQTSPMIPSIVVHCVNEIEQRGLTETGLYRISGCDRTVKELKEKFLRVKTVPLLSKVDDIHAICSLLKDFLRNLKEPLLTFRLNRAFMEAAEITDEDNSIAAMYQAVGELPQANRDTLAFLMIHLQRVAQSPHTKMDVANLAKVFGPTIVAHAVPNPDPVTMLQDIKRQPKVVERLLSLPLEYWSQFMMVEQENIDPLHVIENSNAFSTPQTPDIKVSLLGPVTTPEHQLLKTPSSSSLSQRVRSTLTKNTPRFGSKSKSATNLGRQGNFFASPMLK

[11] = Counterscreen for activators of the function of SWI/SNF related, matrix associated, actin dependent regulator of chromatin, subfamily a, member 2 (SMARCA2, BRM): Luminescence-based cell-based high throughput dose response assay to identify non-selective compounds using the VP16 reporter assay.; assay type: functional
[12] = biological target: Glucose-6-phosphate 1-dehydrogenase (Homo sapiens, UniProt P11413); experiment: inhibition of Homo sapiens G6PD, dose series – biochemical, fluorescence, selectivity assay for P. falciparum G6PD inhibitor project, dose response (AID 504792); assay type: functional
Hexokinase = biological target: T3, Hexokinase (Trypanosoma brucei, UniProt Q38C41); experiment: Confirmation assay for inhibitors of Trypanosoma brucei hexokinase 1-Analogue-first series. [Related pubchem assays (depositor defined):AID1430, AID1632, AID2516, AID2560, AID2579, AID2600, AID449725, AID492951]; assay type: functional
T3 sequence (Q38C41 whole entry): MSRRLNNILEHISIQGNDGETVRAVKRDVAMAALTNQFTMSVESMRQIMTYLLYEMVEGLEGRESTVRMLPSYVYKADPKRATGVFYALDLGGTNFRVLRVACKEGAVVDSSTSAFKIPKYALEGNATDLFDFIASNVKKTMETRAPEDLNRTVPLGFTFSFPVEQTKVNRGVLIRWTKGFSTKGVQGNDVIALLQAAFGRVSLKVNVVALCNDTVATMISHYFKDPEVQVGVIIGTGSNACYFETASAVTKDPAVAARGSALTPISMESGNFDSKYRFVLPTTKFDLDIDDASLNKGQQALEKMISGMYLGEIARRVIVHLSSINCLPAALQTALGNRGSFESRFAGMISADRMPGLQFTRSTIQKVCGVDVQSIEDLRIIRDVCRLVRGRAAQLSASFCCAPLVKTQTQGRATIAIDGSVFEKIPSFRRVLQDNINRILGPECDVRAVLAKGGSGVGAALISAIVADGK

[13] = biological target: SWI/SNF-related matrix-associated actin-dependent regulator of chromatin subfamily A member 2 (Homo sapiens, UniProt P51531); experiment: Luminescence-based cell-based high throughput dose response assay to identify activators of the function of SWI/SNF related, matrix associated, actin dependent regulator of chromatin, subfamily a, member 2 (SMARCA2, BRM).; assay type: functional
Paired box protein Pax-8 = Paired box protein Pax-8 (Homo sapiens, UniProt Q06710); experiment: PAX8 transcriptional activity inhibition in RMG-I – RMG-I cells, luciferase, cherry-pick, dose response (AID 687027); assay type: functional, cell-based;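 further: luciferase reporter driven by Pax8 target thyroperoxidase promoter measured by SteadyGlo luminescence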
[14] = general cell-killing toxicity readout – plate reader, dry powder samples, cytotoxicity control for PAX8 inhibitor project, dose response (AID 743021); assay type: functional, cell-based
[15] = OVCAR-3 cell viability loss – plate reader, dry powder samples, PAX8 inhibitor project, dose response (AID 743044); assay type: functional, cell-based
[16] = OVCAR8 cell viability loss – plate reader, dry powder samples, PAX8 project, dose response (AID 743197); assay type: functional, cell-based; details: OVCAR-8
[17] = HIV-1 AD8 envelope cell-cell fusion blockers – cherry-pick, dose response (AID 652062); assay type: functional, cell-based;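 further: luciferase signal from cell-cell fusion driven by HIV-1 clade B AD8 Env; potency is for inhibitors of fusion seen as a drop in luminescence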
[18] = viability loss in CEM21 cells – cell-based, CellTiter-Glo luminescence, cherry-picked, cytotoxicity control for viral fusion inhibitor project, dose response (AID 652042); assay type: functional;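 further: potency for signal decrease meaning cytotoxicity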
[19] = blockers of HIV-1 envelope-mediated cell-cell fusion – cherry-pick, dose response (AID 652057); assay type: functional, cell-based
[20] = A cytotoxicity screen of small molecule inhibitors of the PhoP region in Salmonella typhi identified in the primary screen. [Related pubchem assays: 1850, 1864, 1985 ]; assay type: functional
[21] = tested on: Streptococcus sp. 'group A'; experiment: Streptococcus pyogenes SK(-)GAS viability under kanamycin – luminescence, BacTiterGlo, confirmation, counter-screen for streptokinase expression inhibitor project, dose response (AID 1900); assay type: functional, organism-based
Streptococcus = experiment: GAS UMAA2166 growth inhibition – luminescence, BacTiterGlo, counter-screen for streptokinase expression inhibitor project, dose response (AID 1915); assay type: functional, organism-based;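 further: potency for reduction of bacterial viability or growth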
Streptokinase A = biological target: T4, Streptokinase A (Streptococcus pyogenes serotype M1, UniProt P10520); experiment: viability-normalized secreted streptokinase activity reduction – plasminogen activation absorbance, OD405, dose response (AID 1914); assay type: functional, Streptococcus pyogenes M1 GAS;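 further: secreted streptokinase activity via plasminogen activation per viability signal from cell pellet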
T4 sequence (P10520 whole entry): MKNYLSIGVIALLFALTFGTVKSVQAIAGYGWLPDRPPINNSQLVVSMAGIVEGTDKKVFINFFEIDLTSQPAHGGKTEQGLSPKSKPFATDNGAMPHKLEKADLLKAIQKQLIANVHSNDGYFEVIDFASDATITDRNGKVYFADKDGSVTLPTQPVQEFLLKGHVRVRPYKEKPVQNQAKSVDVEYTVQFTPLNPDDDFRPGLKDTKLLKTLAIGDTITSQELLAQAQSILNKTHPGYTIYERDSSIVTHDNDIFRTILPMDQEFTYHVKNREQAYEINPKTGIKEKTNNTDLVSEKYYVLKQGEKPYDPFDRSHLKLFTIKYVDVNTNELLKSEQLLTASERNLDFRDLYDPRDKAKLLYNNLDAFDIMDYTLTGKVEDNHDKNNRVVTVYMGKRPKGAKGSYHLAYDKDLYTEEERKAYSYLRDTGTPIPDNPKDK

[22] = biological target: T5, Sentrin-specific protease 8 (Homo sapiens, UniProt Q96LD8); assay type: functional
T5 sequence (Q96LD8 whole entry): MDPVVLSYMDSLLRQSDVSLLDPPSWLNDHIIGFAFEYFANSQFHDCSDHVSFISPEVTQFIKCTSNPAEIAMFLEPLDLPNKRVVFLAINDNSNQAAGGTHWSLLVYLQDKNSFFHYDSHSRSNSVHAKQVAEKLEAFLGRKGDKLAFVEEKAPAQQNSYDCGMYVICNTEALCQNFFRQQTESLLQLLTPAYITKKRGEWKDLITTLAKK

[23] = biological target: T5, Sentrin-specific protease 8; assay type: functional; remark: listed apart in the source
[24] = viability loss in HeLa cells – cytotoxicity control for MgcRacGAP inhibitor project, dose response (AID 624300); assay type: functional
[25] = biological target: T6, Heat shock factor protein 1 (Mus musculus, UniProt P38532); experiment: enhancement of HSF1-driven luciferase signal – cell-based, NIH3T3, luminescence, dose retest, confirmation (AID 435004); assay type: functional;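 further: stress induced by proteasome inhibitor MG132 added 30 min after compound; luciferase reporter driven by HSF1 response element in NIH3T3 cells; actives raise luminescence as potentiators of the MG132 stress response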
T6 sequence (P38532 whole entry): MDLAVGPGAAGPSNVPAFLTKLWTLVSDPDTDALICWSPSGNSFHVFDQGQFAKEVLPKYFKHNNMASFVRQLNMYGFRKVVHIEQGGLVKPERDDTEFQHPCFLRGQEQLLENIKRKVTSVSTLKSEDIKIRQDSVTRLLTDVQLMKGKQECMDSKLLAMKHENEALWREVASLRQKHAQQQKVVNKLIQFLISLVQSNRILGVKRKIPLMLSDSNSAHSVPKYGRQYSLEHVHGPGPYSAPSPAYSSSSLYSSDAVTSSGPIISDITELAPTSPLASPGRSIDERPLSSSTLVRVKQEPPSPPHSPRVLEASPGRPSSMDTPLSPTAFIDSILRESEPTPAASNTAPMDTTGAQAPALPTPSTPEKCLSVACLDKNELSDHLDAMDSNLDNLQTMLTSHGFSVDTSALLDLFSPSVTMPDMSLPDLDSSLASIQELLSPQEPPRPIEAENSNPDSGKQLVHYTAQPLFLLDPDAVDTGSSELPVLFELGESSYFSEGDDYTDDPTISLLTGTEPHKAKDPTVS

Sequence of Paired box protein Pax-8 (Q06710 whole entry): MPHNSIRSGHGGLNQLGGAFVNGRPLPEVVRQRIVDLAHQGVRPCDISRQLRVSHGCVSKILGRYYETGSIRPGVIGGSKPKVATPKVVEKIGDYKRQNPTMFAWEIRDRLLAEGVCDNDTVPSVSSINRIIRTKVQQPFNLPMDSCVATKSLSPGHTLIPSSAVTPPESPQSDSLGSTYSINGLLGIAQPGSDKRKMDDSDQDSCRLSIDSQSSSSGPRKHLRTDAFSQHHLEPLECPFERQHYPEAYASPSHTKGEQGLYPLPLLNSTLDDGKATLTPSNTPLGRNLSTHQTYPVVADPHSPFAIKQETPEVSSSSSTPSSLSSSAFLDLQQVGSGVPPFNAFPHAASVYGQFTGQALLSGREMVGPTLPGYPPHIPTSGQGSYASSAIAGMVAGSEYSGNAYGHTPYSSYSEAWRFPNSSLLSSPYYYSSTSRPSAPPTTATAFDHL
Sequence of 5-hydroxytryptamine receptor 2A (P35363 whole entry): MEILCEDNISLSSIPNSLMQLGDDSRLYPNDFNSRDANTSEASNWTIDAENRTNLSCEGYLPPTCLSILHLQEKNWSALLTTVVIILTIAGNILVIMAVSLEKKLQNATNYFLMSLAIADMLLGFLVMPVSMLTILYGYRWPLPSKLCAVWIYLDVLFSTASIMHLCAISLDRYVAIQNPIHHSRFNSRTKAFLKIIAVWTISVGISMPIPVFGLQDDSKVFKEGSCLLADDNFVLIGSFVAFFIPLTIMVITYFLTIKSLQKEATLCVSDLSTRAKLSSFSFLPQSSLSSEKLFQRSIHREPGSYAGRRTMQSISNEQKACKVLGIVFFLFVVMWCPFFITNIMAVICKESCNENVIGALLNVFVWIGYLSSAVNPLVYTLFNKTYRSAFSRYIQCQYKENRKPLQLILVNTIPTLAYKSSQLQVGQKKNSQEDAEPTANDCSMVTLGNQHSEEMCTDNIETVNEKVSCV
Sequence of SWI/SNF-related matrix-associated actin-dependent regulator of chromatin subfamily A member 2 (P51531 whole entry): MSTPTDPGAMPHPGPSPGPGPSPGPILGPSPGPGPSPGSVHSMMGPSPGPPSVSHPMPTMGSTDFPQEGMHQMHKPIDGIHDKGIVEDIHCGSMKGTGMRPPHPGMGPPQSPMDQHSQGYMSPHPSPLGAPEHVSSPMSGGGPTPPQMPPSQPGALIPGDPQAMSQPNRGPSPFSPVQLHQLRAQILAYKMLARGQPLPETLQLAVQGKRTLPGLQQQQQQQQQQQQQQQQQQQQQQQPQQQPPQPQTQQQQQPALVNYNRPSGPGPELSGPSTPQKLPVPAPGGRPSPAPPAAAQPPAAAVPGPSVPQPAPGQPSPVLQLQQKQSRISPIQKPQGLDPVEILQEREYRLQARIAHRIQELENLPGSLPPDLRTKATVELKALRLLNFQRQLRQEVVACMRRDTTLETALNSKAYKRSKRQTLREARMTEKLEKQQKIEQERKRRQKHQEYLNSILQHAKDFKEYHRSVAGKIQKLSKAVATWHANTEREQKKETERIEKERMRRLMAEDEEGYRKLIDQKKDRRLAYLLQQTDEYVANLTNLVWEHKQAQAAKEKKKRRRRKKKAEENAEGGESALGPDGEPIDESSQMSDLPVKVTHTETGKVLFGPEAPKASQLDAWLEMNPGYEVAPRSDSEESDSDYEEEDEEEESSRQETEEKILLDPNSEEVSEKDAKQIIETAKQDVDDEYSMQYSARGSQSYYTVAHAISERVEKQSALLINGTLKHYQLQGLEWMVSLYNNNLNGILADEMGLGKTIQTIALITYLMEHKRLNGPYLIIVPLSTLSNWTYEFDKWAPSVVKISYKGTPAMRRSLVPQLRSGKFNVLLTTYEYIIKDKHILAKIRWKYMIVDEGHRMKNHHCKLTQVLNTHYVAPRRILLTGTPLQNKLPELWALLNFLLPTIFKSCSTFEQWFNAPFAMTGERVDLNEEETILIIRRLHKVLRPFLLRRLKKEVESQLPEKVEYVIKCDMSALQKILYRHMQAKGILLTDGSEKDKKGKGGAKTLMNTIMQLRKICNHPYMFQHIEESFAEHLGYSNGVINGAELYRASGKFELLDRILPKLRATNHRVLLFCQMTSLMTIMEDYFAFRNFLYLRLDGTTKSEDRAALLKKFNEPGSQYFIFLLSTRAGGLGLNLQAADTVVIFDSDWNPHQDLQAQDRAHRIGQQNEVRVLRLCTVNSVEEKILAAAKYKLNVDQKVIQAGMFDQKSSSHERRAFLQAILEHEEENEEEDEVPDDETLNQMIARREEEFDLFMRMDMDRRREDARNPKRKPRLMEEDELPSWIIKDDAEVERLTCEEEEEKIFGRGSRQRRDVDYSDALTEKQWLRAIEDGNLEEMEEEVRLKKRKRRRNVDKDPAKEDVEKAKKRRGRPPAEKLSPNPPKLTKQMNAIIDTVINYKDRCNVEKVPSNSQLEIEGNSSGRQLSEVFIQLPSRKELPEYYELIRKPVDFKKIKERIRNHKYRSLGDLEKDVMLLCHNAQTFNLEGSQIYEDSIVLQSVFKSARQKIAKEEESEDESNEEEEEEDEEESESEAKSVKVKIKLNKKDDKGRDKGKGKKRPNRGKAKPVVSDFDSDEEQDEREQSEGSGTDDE
Sequence of Glucose-6-phosphate 1-dehydrogenase (P11413 whole entry): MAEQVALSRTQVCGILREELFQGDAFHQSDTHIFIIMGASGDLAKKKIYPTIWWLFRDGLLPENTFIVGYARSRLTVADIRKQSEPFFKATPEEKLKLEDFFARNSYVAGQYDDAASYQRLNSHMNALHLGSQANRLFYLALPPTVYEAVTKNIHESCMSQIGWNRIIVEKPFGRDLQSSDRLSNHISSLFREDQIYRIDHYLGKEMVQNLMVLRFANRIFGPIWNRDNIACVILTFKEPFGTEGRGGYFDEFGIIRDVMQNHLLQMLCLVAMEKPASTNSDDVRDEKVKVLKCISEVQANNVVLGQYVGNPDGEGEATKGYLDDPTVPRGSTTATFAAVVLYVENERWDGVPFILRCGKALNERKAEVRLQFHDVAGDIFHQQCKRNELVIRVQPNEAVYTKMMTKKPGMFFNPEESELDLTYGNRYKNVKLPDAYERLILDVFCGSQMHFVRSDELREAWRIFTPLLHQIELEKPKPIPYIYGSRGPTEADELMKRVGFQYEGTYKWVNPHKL
Sequence of Beta Lactamase (Q932Y6 whole entry): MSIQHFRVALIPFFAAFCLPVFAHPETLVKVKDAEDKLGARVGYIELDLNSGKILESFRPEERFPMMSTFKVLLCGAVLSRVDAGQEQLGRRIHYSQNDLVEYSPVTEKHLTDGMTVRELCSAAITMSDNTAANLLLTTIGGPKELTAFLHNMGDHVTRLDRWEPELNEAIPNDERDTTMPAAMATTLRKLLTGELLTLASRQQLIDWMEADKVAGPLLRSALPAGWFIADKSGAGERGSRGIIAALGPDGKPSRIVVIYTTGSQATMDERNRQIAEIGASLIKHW
Sequence of Mu-type opioid receptor (P35372 whole entry): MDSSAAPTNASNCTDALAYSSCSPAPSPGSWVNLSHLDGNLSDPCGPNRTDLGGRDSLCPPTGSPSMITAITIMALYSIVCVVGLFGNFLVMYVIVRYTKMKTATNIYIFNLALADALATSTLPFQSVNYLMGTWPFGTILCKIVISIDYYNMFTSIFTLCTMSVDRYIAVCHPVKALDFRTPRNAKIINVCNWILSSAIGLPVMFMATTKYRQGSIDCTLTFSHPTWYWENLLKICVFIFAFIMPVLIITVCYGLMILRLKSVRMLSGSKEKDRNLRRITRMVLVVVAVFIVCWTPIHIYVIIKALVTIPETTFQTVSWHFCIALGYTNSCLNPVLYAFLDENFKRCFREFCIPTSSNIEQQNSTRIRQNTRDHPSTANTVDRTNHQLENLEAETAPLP
Sequence of Tyrosyl-DNA phosphodiesterase 2 (O95551 whole entry): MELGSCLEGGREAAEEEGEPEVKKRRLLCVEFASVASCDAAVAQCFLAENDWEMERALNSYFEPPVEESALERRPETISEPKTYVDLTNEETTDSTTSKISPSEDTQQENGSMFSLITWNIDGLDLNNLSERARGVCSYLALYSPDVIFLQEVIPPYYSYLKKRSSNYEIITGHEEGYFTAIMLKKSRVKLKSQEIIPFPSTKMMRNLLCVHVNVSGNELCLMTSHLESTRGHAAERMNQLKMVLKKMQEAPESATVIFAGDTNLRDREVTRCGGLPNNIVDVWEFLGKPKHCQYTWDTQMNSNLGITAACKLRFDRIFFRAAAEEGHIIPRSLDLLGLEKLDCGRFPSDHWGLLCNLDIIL

c1ccc(CN2CCN(c3ncccn3)CC2)cc1
EC50 [1]: 0.235 µM (active) | EC50 (Mu-type opioid receptor): 92.5 µM (inactive)

S=C(Nc1ccc2nsnc2c1)N1CCCC1
IC50 [2]: > 128 µM (inactive)

CCCOc1ccc(OCCOCCN2CCc3ccccc3C2)cc1
EC50 [3]: > 30 µM (not active) | EC50 [4]: 2.08 µM (active) | EC50 (cells [5]): > 29.9 µM (inactive) | EC50 [6]: 0.205 µM (active) | IC50 [7]: > 3.32 µM (active) | IC50 (cells [8]): > 29.9 µM (inactive)

O=C(Cn1sc2ccccc2c1=O)Nc1ccc(F)cc1
IC50 [9]: 9.51 µM (active) | IC50 (Beta Lactamase): 19.3 µM (inactive) | IC50 [10]: 56.2 µM (active) | EC50 [11]: > 91.1 µM (inactive) | IC50 [12]: 14.9 µM (active) | IC50 (Hexokinase): 6.23 µM (active) | EC50 [13]: > 91.1 µM (inactive)

N=C(N)N/N=C(\c1ccc(F)cc1)c1ccc(C(F)(F)F)cc1
AC50 (Paired box protein Pax-8): 3.32 µM (active) | AC50 [14]: 39.9 µM (active)

O=C1CN(S(=O)(=O)Cc2ccccc2)C[C@H]2[C@H](c3ccc(C#Cc4ccc(F)cc4)cc3)[C@H](CO)N12
AC50 (Paired box protein Pax-8): 8.12 µM (active) | AC50 [14]: 56 µM (active) | AC50 [15]: 32.6 µM (active)

COc1cccc(S(=O)(=O)N(C)C[C@@H]2OCc3ccccc3-c3c(n(C)c4ccccc34)C(=O)N([C@@H](C)CO)C[C@@H]2C)c1
AC50 [16]: > 70 µM (inactive) | AC50 (Paired box protein Pax-8): 5.8 µM (active) | AC50 [17]: 19.2 µM (active) | AC50 [18]: 34.8 µM (active) | AC50 [19]: 16.5 µM (active)

COc1cccc(S(=O)(=O)N2CC3(CN(C(=O)Nc4cccc(F)c4)[C@@H](CO)c4[nH]c5cc(OC)ccc5c43)C2)c1
AC50 [17]: 27.1 µM (active) | AC50 [18]: 26.1 µM (active) | AC50 [19]: 0.986 µM (active)

O=[N+]([O-])c1ccc(/C=[N+](\[O-])CCO)o1
EC50 [20]: > 50 µM (active) | EC50 [21]: 3.97 µM (active) | EC50 (Streptococcus): 9.91 µM (active) | EC50 (Streptokinase A): > 150 µM (not active) | IC50 [22]: 43.4 µM (active) | IC50 [23]: 16.7 µM (active)

O=S(=O)(c1ccc(Cl)c(NC(=S)N/N=C/c2ccc(O)cc2)c1)N1CCOCC1
CC50 [24]: 45.7 µM (active) | IC50 [10]: 47.6 µM (active) | EC50 [25]: > 260 µM (inactive)
